In paper PMC2614658 (Antiviral Research, 2008):
Like-named read-outs stand apart in the source and are kept apart here.

Key:
influenza A/WSN/33 virus [1] = tested on: influenza A/WSN/33 virus
influenza A/WSN/33 virus [2] = details: ∼6 μM PMA
A549 cells = details: 24 h treatment, MTS assay
[3] = tested on: influenza B/Yamagata/88 virus; format: cell-based
[4] = tested on: vesicular stomatitis virus (VSV-GFP); format: cell-based
[5] = tested on: Newcastle disease virus (NDV/B1); format: cell-based
influenza A/WSN/33 virus [6] = format: cell-based
influenza A/WSN/33 virus [7] = assay: in vitro; details: human
influenza A/WSN/33 virus [8] = assay: microbe, parasite or virus in culture; details: A549, 24 h
in vitro = details: human
[9] = read-out: IC50 (compound concentration of 50% inhibition of viral replication)

## CCCCCCCCCCCCCC(=O)O[C@@H]1[C@@H](C)[C@@]2(O)[C@@H](C=C(CO)C[C@]3(O)C(=O)C(C)=C[C@@H]23)[C@@H]2C(C)(C)[C@]12OC(C)=O [PMA, phorbol 12-myristate 13-acetate]
Influenza A/WSN/33 virus [1]
  increase in viral titer compared to untreated control: 12 fold
Influenza A/WSN/33 virus [2]
  toxicity at the concentration used in the screen: toxic

## N#Cc1cc2c(OCC(O)CN3CCN(C(c4ccccc4)c4ccccc4)CC3)cccc2[nH]1 (stereo not shown) [SDZ-201106]
Influenza A/WSN/33 virus [1]
  SI (CC50/IC50), selective index: 7
  reduction in viral titers compared to untreated control: 85%
Influenza A/WSN/33 virus [1]; [9]
  IC50: 4100 nM
A549 cells
  concentrations found to be non-toxic / not decreasing cell viability: up to 12.5 μM
[3]
  reduction in viral titers compared to untreated control: 72%

## CC(=O)O[C@H]1C[C@H](O[C@H]2[C@@H](O)C[C@H](O[C@H]3[C@@H](O)C[C@H](O[C@H]4CC[C@@]5(C)[C@H](CC[C@@H]6[C@@H]5C[C@@H](O)[C@]5(C)[C@@H](C7=CC(=O)OC7)CC[C@]65O)C4)O[C@@H]3C)O[C@@H]2C)O[C@H](C)[C@H]1O[C@@H]1O[C@H](CO)[C@@H](O)[C@H](O)[C@H]1O [lanatoside C]
Influenza A/WSN/33 virus [1]; […], 20 nM ouabain or 78 nM lanatoside C
  decrease in viral titers compared to untreated control: 95.9%
[4]
  effect on viral replication: significantly inhibit
[5]
  effect on viral replication: significantly inhibit

## C=C(C)[C@@]12O[C@@]3(c4ccccc4)O[C@@H]1[C@@H]1[C@@H]4O[C@]4(CO)[C@@H](O)[C@]4(O)C(=O)C(C)=C[C@H]4[C@@]1(O3)[C@H](C)[C@H]2OC(=O)/C=C/C=C/c1ccccc1 [mezerein]
Influenza A/WSN/33 virus [6]
  increase in viral titers: 15 fold
[3]
  increase in viral titer compared to untreated cells: eightfold

## C[C@@H]1O[C@@H](O[C@H]2C[C@@H](O)[C@]3(CO)[C@H]4[C@H](O)C[C@]5(C)[C@@H](C6=CC(=O)OC6)CC[C@]5(O)[C@@H]4CC[C@]3(O)C2)[C@H](O)[C@H](O)[C@H]1O [ouabain]
Influenza A/WSN/33 virus [1]
  decrease in viral titers compared to untreated control: 99.1%
[4]
  effect on viral replication: significantly inhibit
[5]
  effect on viral replication: significantly inhibit

## CC(=O)c1c(O)c(C)c(O)c(Cc2c(O)c3c(c(C(=O)/C=C/c4ccccc4)c2O)OC(C)(C)C=C3)c1O [rottlerin]
Influenza A/WSN/33 virus [7]
  selectivity ratio: 39
Influenza A/WSN/33 virus [1]
  reduction in viral titers compared to untreated control: 93%
A549 cells
  concentrations found to be non-toxic / not decreasing cell viability: up to 1.28 μM
Influenza A/WSN/33 virus [8]; [9]
  IC50: 460 nM
Influenza A/WSN/33 virus [8]; read-out: IC50 (half maximal inhibitory concentration)
  IC50: 465 nM
In vitro
  CC50: 18200 nM
[3]
  reduction in viral titers compared to untreated control: 80%
